Test results reported in ChEMBL document CHEMBL3352542, “Synthesis, biological evaluation and molecular modeling study of 2-(1,3,4-thiadiazolyl-thio and 4-methyl-thiazolyl-thio)-quinazolin-4-ones as a new class of DHFR inhibitors” (Bioorg Med Chem Lett, 2014).

Tests used:
Dihydrofolate reductase = target: T1, Dihydrofolate reductase (Bos taurus, UniProt P00376); assay: Inhibition of bovine liver DHFR
T1 sequence (P00376 whole entry): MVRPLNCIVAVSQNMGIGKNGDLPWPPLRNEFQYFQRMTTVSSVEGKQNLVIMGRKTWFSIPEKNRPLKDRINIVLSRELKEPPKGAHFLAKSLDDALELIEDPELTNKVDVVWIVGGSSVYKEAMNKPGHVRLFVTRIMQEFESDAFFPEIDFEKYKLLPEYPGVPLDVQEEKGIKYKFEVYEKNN

Staphylococcus aureus = assay: Antimicrobial activity against Staphylococcus aureus assessed as inhibition zone at 200 ug/disk after 24 hrs by disc-diffusion method; format: functional; details: read-out: IZ
Bacillus subtilis = assay: Antimicrobial activity against Bacillus subtilis assessed as inhibition zone at 200 ug/disk after 24 hrs by disc-diffusion method; format: functional; details: read-out: IZ
Escherichia coli = assay: Antimicrobial activity against Escherichia coli assessed as inhibition zone at 200 ug/disk after 24 hrs by disc-diffusion method; format: functional; details: read-out: IZ
Pseudomonas aeruginosa = assay: Antimicrobial activity against Pseudomonas aeruginosa assessed as inhibition zone at 200 ug/disk after 24 hrs by disc-diffusion method; format: functional; details: read-out: IZ
Candida albicans = assay: Antimicrobial activity against Candida albicans assessed as inhibition zone at 200 ug/disk after 24 hrs by disc-diffusion method; format: functional; details: read-out: IZ
CCRF-CEM = assay: Growth inhibition of human CCRF-CEM cells at 10 uM after 48 hrs; format: functional; details: read-out: GI
HL-60(TB) = assay: Growth inhibition of human HL-60(TB) cells at 10 uM after 48 hrs; format: functional; details: HL-60, 48 h, read-out: GI
K562 = assay: Growth inhibition of human K562 cells at 10 uM after 48 hrs; format: functional; details: K562, 48 h, read-out: GI
[1] = Growth inhibition of human MOLT4 cells at 10 uM after 48 hrs; format: functional; details: MOLT-4, 48 h, read-out: GI
[2] = Growth inhibition of human RPMI8226 cells at 10 uM after 48 hrs; format: functional; details: RPMI-8226, 48 h, read-out: GI
A549 = assay: Growth inhibition of human A549 cells at 10 uM after 48 hrs; format: functional; details: A549, 48 h, read-out: GI
[3] = Growth inhibition of human HOP92 cells at 10 uM after 48 hrs; format: functional; details: HOP-92, 48 h, read-out: GI
NCI-H226 = assay: Growth inhibition of human NCI-H226 cells at 10 uM after 48 hrs; format: functional; details: NCI-H226, 48 h, read-out: GI
NCI-H522 = assay: Growth inhibition of human NCI-H522 cells at 10 uM after 48 hrs; format: functional; details: NCI-H522, 48 h, read-out: GI
[4] = Growth inhibition of human COLO205 cells at 10 uM after 48 hrs; format: functional; details: COLO 205, 48 h, read-out: GI
[5] = Growth inhibition of human HCC2998 cells at 10 uM after 48 hrs; format: functional; details: HCC 2998, 48 h, read-out: GI
[6] = Growth inhibition of human HCT116 cells at 10 uM after 48 hrs; format: functional; details: HCT-116, 48 h, read-out: GI
[7] = Growth inhibition of human HCT15 cells at 10 uM after 48 hrs; format: functional; details: HCT-15, 48 h, read-out: GI
HT-29 = assay: Growth inhibition of human HT-29 cells at 10 uM after 48 hrs; format: functional; details: HT-29, 48 h, read-out: GI
SW-620 = assay: Growth inhibition of human SW620 cells at 10 uM after 48 hrs; format: functional; details: SW-620, 48 h, read-out: GI
[8] = Growth inhibition of human SF295 cells at 10 uM after 48 hrs; format: functional; details: SF-295, 48 h, read-out: GI
[9] = Growth inhibition of human SF539 cells at 10 uM after 48 hrs; format: functional; details: SF-539, 48 h, read-out: GI
SNB-75 = assay: Growth inhibition of human SNB75 cells at 10 uM after 48 hrs; format: functional; details: SNB-75, 48 h, read-out: GI
U-251 = assay: Growth inhibition of human U251 cells at 10 uM after 48 hrs; format: functional; details: U-251, 48 h, read-out: GI
[10] = Growth inhibition of human LOXIMVI cells at 10 uM after 48 hrs; format: functional; details: LOX IMVI, read-out: GI
M14 = assay: Growth inhibition of human M14 cells at 10 uM after 48 hrs; format: functional; details: M14, 48 h, read-out: GI
SK-MEL-5 = assay: Growth inhibition of human SK-MEL-5 cells at 10 uM after 48 hrs; format: functional; details: SK-MEL-5, 48 h, read-out: GI
[11] = Growth inhibition of human UACC257 cells at 10 uM after 48 hrs; format: functional; details: UACC-257, 48 h, read-out: GI
[12] = Growth inhibition of human UACC62 cells at 10 uM after 48 hrs; format: functional; details: UACC-62, 48 h, read-out: GI
[13] = Growth inhibition of human OVCAR4 cells at 10 uM after 48 hrs; format: functional; details: OVCAR-4, 48 h, read-out: GI
[14] = Growth inhibition of human OVCAR8 cells at 10 uM after 48 hrs; format: functional; details: OVCAR-8, 48 h, read-out: GI
[15] = Growth inhibition of human NCI-ADR-RES cells at 10 uM after 48 hrs; format: functional; details: read-out: GI
786-0 = assay: Growth inhibition of human 786-0 cells at 10 uM after 48 hrs; format: functional; details: 786-0, 48 h, read-out: GI
A498 = assay: Growth inhibition of human A498 cells at 10 uM after 48 hrs; format: functional; details: A498, 48 h, read-out: GI
ACHN = assay: Growth inhibition of human ACHN cells at 10 uM after 48 hrs; format: functional; details: read-out: GI
[16] = Growth inhibition of human RXF393 cells at 10 uM after 48 hrs; format: functional; details: RXF 393, 48 h, read-out: GI
SN12C = assay: Growth inhibition of human SN12C cells at 10 uM after 48 hrs; format: functional; details: read-out: GI
[17] = Growth inhibition of human UO31 cells at 10 uM after 48 hrs; format: functional; details: UO-31, 48 h, read-out: GI
[18] = Growth inhibition of human PC3 cells at 10 uM after 48 hrs; format: functional; details: PC-3, 48 h, read-out: GI
MCF7 = assay: Growth inhibition of human MCF7 cells at 10 uM after 48 hrs; format: functional; details: MCF7, 48 h, read-out: GI
[19] = Growth inhibition of human Hs 578T cells at 10 uM after 48 hrs; format: functional; details: read-out: GI
[20] = Growth inhibition of human BT549 cells at 10 uM after 48 hrs; format: functional; details: BT-549, 48 h, read-out: GI
T47D = assay: Growth inhibition of human T47D cells at 10 uM after 48 hrs; format: functional; details: read-out: GI
MDA-MB-468 = assay: Growth inhibition of human MDA-MB-468 cells at 10 uM after 48 hrs; format: functional; details: MDA-MB-468, 48 h, read-out: GI

COc1cc2nc(Sc3sc(N)nc3C)n(-c3ccc(Oc4ccccc4)cc3)c(=O)c2cc1OC
IC50 (Dihydrofolate reductase): 6 µM
zone of inhibition at 200 µg/disc (Staphylococcus aureus): 8 mm
zone of inhibition at 200 µg/disc (Bacillus subtilis): 8 mm
zone of inhibition at 200 µg/disc (Escherichia coli): 8 mm
zone of inhibition at 200 µg/disc (Pseudomonas aeruginosa): 8 mm
zone of inhibition at 200 µg/disc (Candida albicans): 8 mm
inhibition of growth at 10 µM (CCRF-CEM): 35.5%
inhibition of growth at 10 µM (HL-60(TB)): 21.2%
inhibition of growth at 10 µM (K562): 21.5%
inhibition of growth at 10 µM [1]: 46.1%
inhibition of growth at 10 µM [2]: 32.4%
inhibition of growth at 10 µM (A549): 16.7%
inhibition of growth at 10 µM [3]: 20.5%
inhibition of growth at 10 µM (NCI-H226): 10.3%
inhibition of growth at 10 µM (NCI-H522): 16.3%
inhibition of growth at 10 µM [4]: 24.1%
inhibition of growth at 10 µM [5]: 19.6%
inhibition of growth at 10 µM [6]: 52.7%
inhibition of growth at 10 µM [7]: 20.1%
inhibition of growth at 10 µM (HT-29): 25%
inhibition of growth at 10 µM (SW-620): 18.8%
inhibition of growth at 10 µM [8]: 14.6%
inhibition of growth at 10 µM [9]: 18.7%
inhibition of growth at 10 µM (SNB-75): 13.3%
inhibition of growth at 10 µM (U-251): 12.4%
inhibition of growth at 10 µM [10]: 21.7%
inhibition of growth at 10 µM (M14): 18.5%
inhibition of growth at 10 µM (SK-MEL-5): 23.2%
inhibition of growth at 10 µM [11]: 10.3%
inhibition of growth at 10 µM [12]: 18.6%
inhibition of growth at 10 µM [13]: 49.3%
inhibition of growth at 10 µM [14]: 15%
inhibition of growth at 10 µM [15]: 24.8%
inhibition of growth at 10 µM (786-0): 20%
inhibition of growth at 10 µM (A498): 18%
inhibition of growth at 10 µM (ACHN): 18.5%
inhibition of growth at 10 µM [16]: 14.1%
inhibition of growth at 10 µM (SN12C): 20.3%
inhibition of growth at 10 µM [17]: 23.9%
inhibition of growth at 10 µM [18]: 34.9%
inhibition of growth at 10 µM (MCF7): 25.7%
inhibition of growth at 10 µM [19]: 11.6%
inhibition of growth at 10 µM [20]: 28.7%
inhibition of growth at 10 µM (T47D): 22.7%
inhibition of growth at 10 µM (MDA-MB-468): 19.9%
